# Results from patent US20020044971A1, “Dissolution rate of poorly soluble drugs” (priority 2000, published 2002).
# Like-named read-outs stand apart in the source and are kept apart here.
# Assays:
# [1] = aqueous solubility, cited from earlier work
# [2] = Volume of fluid required to achieve complete dissolution of the dose; type: physicochemical; details: for the dose listed in Table 1
# Description: The volume requirement of the boundary layer is a function of the solubilizing effect of the surfactant. This volume can be calculated by dividing the mass of the particle by the solubility of the drug.
compound,measurement,setting,value
NC(=O)N1c2ccccc2C=Cc2ccccc21 [Carbamazepine],Solubility,[1],0.400 mg/mL
same,YDISSOLUTION (volume of fluid required to achieve complete dissolution),[2],4.3 L
O=C(O)c1cc(-c2ccc(F)cc2F)ccc1O [Diflumisal],Solubility,[1],0.010 mg/mL
same,YDISSOLUTION (volume of fluid required to achieve complete dissolution),[2],3.6 L
C[C@H]1O[C@@H](O[C@H]2[C@@H](O)C[C@H](O[C@H]3[C@@H](O)C[C@H](O[C@H]4CC[C@@]5(C)[C@H](CC[C@@H]6[C@@H]5C[C@@H](O)[C@]5(C)[C@@H](C7=CC(=O)OC7)CC[C@]65O)C4)O[C@@H]3C)O[C@@H]2C)C[C@H](O)[C@@H]1O [Digoxin],YDISSOLUTION (volume of fluid required to achieve complete dissolution),[2],0.021 L
CC(C)(C)NC(=O)[C@H]1CC[C@H]2[C@@H]3CC[C@H]4NC(=O)C=C[C@]4(C)[C@H]3CC[C@]12C [Finasteride],Solubility,[1],0.001 mg/mL
same,YDISSOLUTION (volume of fluid required to achieve complete dissolution),[2],5.0 L
OC(Cn1cncn1)(Cn1cncn1)c1ccc(F)cc1F [Fluconazole],Solubility,[1],0.100 mg/mL
same,YDISSOLUTION (volume of fluid required to achieve complete dissolution),[2],2.0 L
COC1=CC(=O)C[C@@H](C)[C@]12Oc1c(Cl)c(OC)cc(OC)c1C2=O [Griseofulvin],Solubility,[1]; measured at 39° C.,0.017 mg/mL
same,YDISSOLUTION (volume of fluid required to achieve complete dissolution),[2],29.4 L
CCC(C)n1ncn(-c2ccc(N3CCN(c4ccc(OCC5COC(Cn6cncn6)(c6ccc(Cl)cc6Cl)O5)cc4)CC3)cc2)c1=O (stereo not drawn) [Itraconozole],Solubility,[1],0.001 mg/mL
same,YDISSOLUTION (volume of fluid required to achieve complete dissolution),[2],9.9 L
CN1C(C(=O)Nc2ccccn2)=C(O)c2ccccc2S1(=O)=O [Piroxicam],Solubility,[1],0.010 mg/mL
same,YDISSOLUTION (volume of fluid required to achieve complete dissolution),[2],8.2 L
